Patent publication US8552013B2, “Heterocyclic compounds based on N6-substituted adenine, methods of their preparation, their use for preparation of drugs, cosmetic preparations and growth regulators, pharmaceutical preparations, cosmetic preparations and growth regulators containing these compounds” (USTAV Experimentalni Botaniky Akademie Ved Ceske Republiky, priority 2001, dated 2013)
“And” between values parts separate entries of the source, which are not always exact repeats. Identical values can stand only once. Like-named read-outs stand apart in the source and are kept apart here.

What was measured:
[1] = system: T-lymphoblastic leukemia cell line CEM; test: Calcein AM cytotoxicity, CEM; format: cell-based, human
Procedure, shortened: (§1)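 Cells in DMEM with 10% FCS, pre-incubated 24 h, then exposed to six 4-fold compound dilutions in duplicate for 72 h at 37 °C, 5% CO2. Viability read by Calcein AM fluorescence after 1 h further incubation.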

K-562 = test: Calcein AM cytotoxicity, K-562; format: cell-based; conditions: read-out: IC 50, K-562
Procedure, shortened: as §1

[2] = system: breast carcinoma cell line MCF-7; test: Calcein AM cytotoxicity, MCF7; format: cell-based, human; conditions: read-out: IC 50, MCF7
Procedure, shortened: as §1

[3] = system: promyelocytic HL-60 leukemia; test: Calcein AM cytotoxicity, HL60; format: cell-based, human; conditions: read-out: IC 50, HL60
Procedure, shortened: as §1

[4] = system: lysosomes of fibroblast cells; test: Lysosomal activity, neutral red uptake; format: cell-based, human; conditions: pre-treated fibroblasts
Procedure: Neutral Red is preferentially taken up into the lysosomes of the cell. Fibroblast cells are maintained in culture and exposed to test compounds over a range of concentrations. The cultures are visually examined after 72 hours, and the number of viable cells and/or the total cell protein content determined, after 72 hours exposure, by the Neutral Red Uptake method. Advantage of Neutral Red assay is that it detects only viable cells. Any chemical having a localized effect upon the lysosomes will, therefore, result in an artificially low (or possibly high) reflection of cell viability and cell number. This factor does, however, make the system useful to detect those compounds which selectively affect the lysosomes, especially when it is used in conjunction with other tests capable of determining cell number.
The NR assay has been applied to evaluation and ranking the cytotoxicity of a spectrum of compounds. Individual wells of a 96-well tissue culture microtiter plate were inoculated with 0.2 ml of the appropriate media containing cells (usually 3×10^3 cells). After 1 to 2 days of incubation, the media were removed and replaced with unamended (control) medium or with medium amended with varied concentrations of the compound to be tested. After 3 days of exposure to the compound, media were removed and replaced with media containing 0.001% NR. The assay plate was then returned to the incubator for another 3 h to allow for uptake of the supravital dye into the lysosomes of viable cells. Thereafter, the media were removed and the cells were rapidly washed with 0.5% formaldehyde-1% CaCl2 followed by 0.2 ml of a solution of 1% acetic acid-50% ethanol to extract the dye from the cells. After 10 min at room temperature and a brief but rapid agitation on a microtiter plate shaker, the plates were transferred to a microplate spectrophotometer equipped with a 540-nm filter to measure the absorbance of the extracted dye.
The toxicities of the various compounds were compared with those of the control cultures by computing the data obtained.

[5] = system: human adult skin fibroblasts; test: Short-term growth of human skin fibroblasts (cell counts, Giemsa); format: cell-based; conditions: for Cell growth versus untreated: 40 μM and 80 μM; for Cell proliferation (summary): all concentrations (40, 80, 200 and 500 μM); for appearance of dermal cells (summary): all doses 40, 80, 200 and 500 μM; for Cellular growth at higher concentrations: para 200 to 500 μM after 11 days, ortho 200 and 400 μM after 7 days, meta 400 μM
Procedure: All experiments were performed on early and mid passage cultures (about 20 to 40% lifespan completed) of normal human adult skin fibroblast line; designated ASF-2 & Senetek cell line (about 10-90% lifespan completed); designated as SF20. In order to check the effects of test compounds on senescent cells, late passage cells with more than 95% lifespan completed were used. ASF-2 and SF20 cell lines were established from a mammary skin biopsy obtained from a young, non-smoking and healthy […] at the time of breast reduction operation. Normal culture conditions of medium (DMEM) containing antibiotics, 10% foetal calf serum, and incubation at 37° C. with 95% humidity were used. The effects of the test chemicals were determined in the following conditions:
Short-term growth experiments were performed using 24-well tissue culture plates (growth area 1.9 cm^2). Freshly prepared cell suspensions from mass cultures of ASF-2 cells maintained in our labs were used. About 10,000 cells were seeded into 6 sets of 24-well plates. The cells were allowed to attach and stabilize for 24 hr in normal culture medium to achieve various final concentrations (range 40 to 500 μM). Culture medium was changed with the addition of test chemicals twice a week. The numbers of cells were counted after different days of treatment in 2 wells from each concentration of the test chemical, by following the normal method of cell trypsinization and counting using a Coultercounter. The third well in each category was fixed by cold methanol and stained with Giemsa stain for permanent record and for photography. The experiment was carried on for until the cultures became fully confluent and no further growth was possible.

human skin fibroblasts = test: Cell survival, MTT assay; format: cell-based; conditions: 3 days
Procedure: Cell survival after exposure to various doses was measured with the 3-(4,5 dimethylthiazol-2-yl)-2,5-diphenyltetrazolium bromide (MTT) assay. About 5,000 cells were seeded per well in a 96-well plate 24 h before the experiment. Cells were then treated with various doses of the compound to be tested. The wells were washed in Hank's and new medium was added. After three days, MTT (Sigma, M2128) was added at 0.5 mg/ml in medium. After 4 h, MTT was removed and isopropanol and HCl were added to dissolve the MTT crystals for 12-16 h. The absorbance at 595 nm was measured.

## Ic1cccc(CNc2ncnc3nc[nH]c23)c1 [6-(3-iodobenzylamino)purine]
[1]; Homo sapiens, 72 h
  IC50: 125 µM
K-562; Homo sapiens, K562, 72 h
  IC50: 94.7 µM
[2]; Homo sapiens, MCF7, 72 h
  IC50: 130 µM
[3]; Homo sapiens, HL-60, 72 h
  IC50: 133 µM

## Cc1ccccc1CNc1ncnc2nc[nH]c12 [6-(2-methylbenzylamino)purine]
[1]; Homo sapiens, 72 h
  IC50: > 167 µM
K-562; Homo sapiens, K562, 72 h
  IC50: 157 µM
[2]; Homo sapiens, MCF7, 72 h
  IC50: > 167 µM
[3]; Homo sapiens, HL-60, 72 h
  IC50: > 167 µM

## Fc1ccccc1CNc1ncnc2nc[nH]c12 [6-(2-fluorobenzylamino)purine]
[1]; 72 hours, listed as 2F BAP
  IC50: 136 µM and 98.9 µM
K-562; 72 hours
  IC50: 136 µM and 70.7 µM
[2]; 72 hours, listed as 2F BAP
  IC50: 109 µM and 128 µM
[3]; 72 hours, listed as 2F BAP
  IC50: > 167 µM

## COc1cccc(CNc2ncnc3nc[nH]c23)c1 [6-(3-methoxybenzylamino)purine]
[2]; 72 hours, listed as 3MeO BAP
  IC50: 150 µM

## Cc1ccc(CNc2ncnc3nc[nH]c23)cc1 [6-(4-methylbenzylamino)purine]
[1]; Homo sapiens, 72 h
  IC50: 72.1 µM
K-562; Homo sapiens, K562, 72 h
  IC50: 72.8 µM
[2]; Homo sapiens, MCF7, 72 h
  IC50: 82.8 µM
[3]; Homo sapiens, HL-60, 72 h
  IC50: 88 µM

## Oc1ccccc1CNc1ncnc2nc[nH]c12 [ortho-topolin, 6-(2-hydroxybenzylamino)purine]
[4]
  Cleaning up of cytoplasmic debris (macro-molecular turn-over rate), summary: No such effective removal was observed
[5]
  Cell growth versus untreated: almost similar
  Cell proliferation (summary): declined to a significant extent
  appearance of dermal cells (summary): morbid in appearance
  Cellular growth at higher concentrations: almost a total inhibition
Human skin fibroblasts; 200-500 μM
  reduction in cell survival: 10-20%
Human skin fibroblasts; range 0.01-500 μM
  dose until which not cytotoxic / no toxic effect on survival (MTT): 100 µM

## Oc1cccc(CNc2ncnc3nc[nH]c23)c1 [meta-topolin, 6-(3-hydroxybenzylamino)purine]
[4]
  Cleaning up of cytoplasmic debris (macro-molecular turn-over rate), summary: No such effective removal was observed
K-562; 72 hours, listed as MT
  IC50: 140 µM
[5]
  Cell growth versus untreated: almost similar
  Cell proliferation (summary): declined to a significant extent
  appearance of dermal cells (summary): morbid in appearance
  Cellular growth at higher concentrations: almost no growth
[5]; 200 μM
  rate of growth: slowed down
Human skin fibroblasts
  cells that did survive treatment: 60%
Human skin fibroblasts; between 0.01 and 1 μM
  cells killed: about 40%
